Measured values from patent publication US20100212036A1, “SELECTIVE INHIBITION OF HISTONE DEACETYLASES 1 AND 2 AS A TREATMENT FOR CARDIAC HYPERTROPHY” (priority 2008, published 2010).
Each block holds one molecule with its values, some of them ahead of it.

Tests used:
cardiomyocytes = details: treatment of cardiomyocytes with HDAC inhibitors; cited from earlier work
PPARα-responsive genes = assay: Real-time RT-PCR of PPARα target genes in hearts of wild-type and HDAC3cKO mice after Wy14,643; type: in vivo; details: 50 mg/kg single intraperitoneal injection
Description: FIGS. 5A-E. Aberrant expression of cardiac metabolism genes from cardiac deletion of HDAC3. (FIG. 5A) Microarray analysis was performed at 5 weeks and gene ontology analysis was performed with PANTHER. […] (FIG. 5B) PPAR-regulated mitochondrial uncoupling genes are increased in HDAC3cKO mice. […] (FIG. 5E) Glucose metabolism is decreased in HDAC3cKO hearts. For (FIGS. 5B-E), real-time RT-PCR was performed from LV RNA of 6-week-old wild-type and HDAC3cKO mice in absence or presence of Wy14,643. Transcript levels were normalized to 18S Ribosomal RNA. KO, HDAC3cKO. Error bars represent standard deviation.
RT-PCR and microarray. For all gene expression analyses from wild-type and HDAC3cKO mice, 4 wild-type and 4 HDAC3cKO hearts were isolated and analyzed. Total RNA was purified using TRIzol reagent according to manufacturer's instructions. For RT-PCR, total RNA was used for reverse transcriptase using random hexamer primers. Primer sequences are available upon request. Quantitative real time PCR was performed using Taqman probes purchased from ABI. For microarray, RNA was extracted from either 3 wild-type or HDAC3cKO hearts and subsequently pooled prior to analysis. Microarray analysis was performed using the Mouse Genome 430 2.0 Array (Affymetrix). All heart RNA was from ventricle tissue only. Microarray analysis was performed by the UT Southwestern Microarray Core Facility using the Mouse Genome 430 2.0 Array (Affymetrix) as described (Davis et al., 2006)
Animal studies. For fasting studies, male HDAC3cKO and wild-type littermates were fasted for 24 hrs. After 24 hrs, mice were sacrificed, hearts extracted, and prepared for Oil Red O staining. Control mice were allowed standard chow ad libitum. Wy14,643 (Biomol) (50 mg/kg body weight) in 50% DMSO/saline was administered as a single intraperitoneal injection. Control littermates were administered vehicle and hearts were extracted 8 hrs after injection. All animal studies were approved by the IACUC of the University of Texas Southwestern Medical Center.

HDAC3 = HDAC3 expression in settings of hypertrophy and failure; type: in vivo; details: following infusion; data not shown
[1] = hearts 8 hrs after injection, vs baseline
[2] = HDAC3cKO mice, LV RNA, hearts extracted 8 hrs after injection, vs baseline

Molecule: CC(/C=C/C(=O)NO)=C\[C@@H](C)C(=O)c1ccc(N(C)C)cc1 [TSA]
- activation of the fetal gene program (cardiomyocytes): dose-dependentle block activation
- hypertrophic response (cardiomyocytes): block the hypertrophic response

Molecule: CCCC(CCC)C(=O)O [VPA]
- activation of the fetal gene program (cardiomyocytes): dose-dependentle block activation
- hypertrophic response (cardiomyocytes): block the hypertrophic response

- ACOX (acyl-CoA oxidase 1) expression (PPARα-responsive genes; HDAC3cKO hearts): further up-regulated
Molecule: Cc1cccc(Nc2cc(Cl)nc(SCC(=O)O)n2)c1C [Wy14,643]
- CD36 transcript level (PPARα-responsive genes; [1]): up-regulated
- FACS (Acsl1) transcript level (PPARα-responsive genes; [1]): up-regulated
- FATP (Slc27a1) transcript level (PPARα-responsive genes; [1]): up-regulated
- GLUT4 expression (PPARα-responsive genes; HDAC3cKO mice): further decreased
- PDK4 expression (PPARα-responsive genes; HDAC3cKO mice): further elevated
- UCP2 transcript level (PPARα-responsive genes; [2]): induction was increased
- UCP3 transcript level (PPARα-responsive genes; [2]): induction was increased
- mCPT-1 transcript levels (PPARα-responsive genes; wild-type or HDAC3cKO hearts): had no effect

Molecule: CC(C)NCC(O)c1ccc(O)c(O)c1 (stereo not drawn) [isoproterenol]
- HDAC3 expression levels (HDAC3): decreased

Molecule: angiotensin
- HDAC3 expression levels (HDAC3): not significantly altered
